Laboratory results: PubChem BioAssay (NCI)
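Results reflect a 48-hour exposure of cells in 96-well plates to compound at five concentrations. Here, GI50 denotes the concentration required for 50% inhibition of growth. Definition used: TGI = concentration required for complete inhibition of growth.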

Tests used:
Assay in all cases: growth of human tumour cells (NCI), 48 h
[1] = test system: 786-0 renal
[2] = test system: A498 renal
[3] = test system: LOX IMVI melanoma
[4] = test system: NCI-H522 lung
[5] = test system: RXF 393 renal
[6] = test system: SF-539 CNS
[7] = test system: SK-MEL-28 melanoma
[8] = test system: SN12C renal
[9] = test system: SNB-75 CNS
[10] = test system: SR leukemia

Row | SMILES | GI50 [1] [µM] | TGI [1] [µM] | GI50 [2] [µM] | TGI [2] [µM] | GI50 [3] [µM] | TGI [3] [µM] | GI50 [4] [µM] | TGI [4] [µM] | GI50 [5] [µM] | TGI [5] [µM] | GI50 [6] [µM] | TGI [6] [µM] | GI50 [7] [µM] | TGI [7] [µM] | GI50 [8] [µM] | TGI [8] [µM] | GI50 [9] [µM] | TGI [9] [µM] | GI50 [10] [µM] | TGI [10] [µM]
1 | CCC(c1cccc(O)c1)C(CC)c1cccc(O)c1 (configuration not stated) | 5.68 | 18.3 | 4.35 | 16.7 | 4.07 | 16.9 | 4.9 | 19.3 | 2.75 | 10.6 | 1.23 | 4.72 | 4.9 | 18.2 | 5.46 | 19.4 | 0.973 | 11.7 | – | –
2 | COc1ccc(Cl)cc1Nc1nc(C(F)(F)F)ccc1C(=O)N/N=C/c1cc(OC)c(OC)c(OC)c1 | 1.78 | 3.68 | 2.19 | 7.65 | 1.25 | 3.28 | 2.29 | 5.83 | – | – | 1.51 | 3.2 | 1.83 | 9.26 | 2.09 | 18 | 2.19 | 9.8 | 1.19 | 4.19
3 | O=c1ccc(=O)c2c(=O)c3ccccc3c(=O)c1=2 | – | > 100 | – | > 100 | – | > 100 | – | > 100 | – | > 100 | – | 70.9 | – | > 100 | – | > 100 | – | > 100 | – | –
4 | CCOC(=O)CC1NC(=O)CS1 (configuration not stated) | – | > 100 | – | > 100 | – | – | – | – | – | – | – | > 100 | – | > 100 | – | > 100 | – | > 100 | – | –
5 | C/C(=N\NC(N)=S)c1nc2ccc(Cl)cc2[nH]1 | 1.59 | 7.96 | 7.11 | 22.5 | – | – | 1.24 | 7.9 | 4.59 | 28.7 | 2.45 | 9.7 | 5.7 | 35.9 | 4.72 | > 50 | 2.29 | 15.6 | 1.29 | 15.9
6 | COc1ccc(Cn2c(Cl)c(/C=C3/C(=O)Nc4ccccc43)c3cc(OC)c(C)cc32)cc1 | 3.92 | 31.7 | – | – | 14.3 | > 100 | 4.77 | > 100 | 4.06 | > 100 | 4.15 | > 100 | 4.03 | > 100 | 8.17 | > 100 | – | – | – | –
7 | O=C(OC[C@H]1O[C@@H](OC(=O)c2cc(O)c(O)c(O)c2)[C@H](OC(=O)c2cc(O)c(O)c(O)c2)[C@@H](OC(=O)c2cc(O)c(O)c(O)c2)[C@@H]1OC(=O)c1cc(O)c(O)c(O)c1)c1cc(O)c(O)c(O)c1 | – | 21.2 | – | 37.5 | – | 4.41 | – | 14.2 | – | 31.2 | – | 16.3 | – | 56.7 | – | > 100 | – | – | – | > 100
8 | Cc1cc2c(=O)c3ccccc3[nH]c2c(C(=O)O)c1C | – | > 100 | – | > 100 | – | – | – | – | – | > 100 | – | > 100 | – | > 100 | – | > 100 | – | > 100 | – | > 100
9 | C=C(C=O)CCCC(C)[C@@H]1CCC23CC12CCC1[C@@]2(C)CCC(OC(C)=O)C(C)(C)C2CC(OC2OC(COC(C)=O)C(O)C(O)C2O)[C@]13C (some centres not stated) | – | 13.2 | – | 13.3 | – | 1.43 | – | 1.53 | – | 11.7 | – | 11.4 | – | 1.77 | – | 5.77 | – | 11.4 | – | –
10 | COC(=O)C1=C(C(=O)OC)SC(=C(Cl)C(=S)Sc2ccccc2N)S1 | 16.9 | 36.1 | – | – | 17.8 | 40.3 | 17.4 | 43.1 | 18.1 | 38 | 18.3 | 42.5 | > 100 | > 100 | 20.5 | 59.4 | 32.8 | > 100 | 52.4 | > 100
11 | O=[N+]([O-])c1ccc2c(c1)[O][Sn]([I])([I])[O]2 | > 100 | > 100 | > 100 | > 100 | 89.4 | > 100 | 61.4 | > 100 | 52.1 | > 100 | > 100 | > 100 | 69.6 | > 100 | > 100 | > 100 | > 100 | > 100 | – | –
12 | O=C1C2Cc3ccccc3CN2C(=O)N1CCN1CCCC1 (configuration not stated) | – | > 100 | – | > 100 | – | > 100 | – | > 100 | – | – | – | > 100 | – | > 100 | – | > 100 | – | – | – | –
13 | COC(=O)c1c(-c2ccccc2)sc(-c2cccc3ccccc23)c1C(=O)OC | – | > 100 | – | > 100 | – | > 100 | – | > 100 | – | > 100 | – | > 100 | – | > 100 | – | > 100 | – | > 100 | – | –
14 | CN=C1SC(=Nc2ccc(N(C)C)cc2)N1C | – | > 100 | – | 91.9 | – | > 100 | – | 59.3 | – | – | – | > 100 | – | > 100 | – | > 100 | – | 49.1 | – | > 100
15 | COC(=O)C1=C(CS(=O)c2ccccc2[N+](=O)[O-])ON(C)C1c1ccccc1 (configuration not stated) | – | > 100 | – | > 100 | – | 28.9 | – | 38 | – | 71.1 | – | 56.2 | – | – | – | 42.6 | – | 84.5 | – | –
16 | O=c1[nH]c(=O)n(C2OC3COC2C3O)cc1F (configuration not stated) | – | > 100 | – | – | – | > 100 | – | > 100 | – | > 100 | – | – | – | > 100 | – | > 100 | – | > 100 | – | –
17 | COC1CC(OC(=O)c2ccccc2)C(OC(=O)c2ccccc2)C(C)O1 (configuration not stated) | – | > 100 | – | > 100 | – | > 100 | – | > 100 | – | > 100 | – | > 100 | – | > 100 | – | > 100 | – | – | – | > 100
18 | O=C1Nc2cccc3cc(NCC(O)CCl)cc1c23 (configuration not stated) | – | > 100 | – | – | – | > 100 | – | > 100 | – | > 100 | – | – | – | > 100 | – | > 100 | – | > 100 | – | 48
19 | OC12CC/C(=N/OCc3ccccc3)CC1c1ccccc12 (configuration not stated) | – | > 100 | – | – | – | > 100 | – | > 100 | – | > 100 | – | > 100 | – | > 100 | – | > 100 | – | > 100 | – | –
20 | C1=CC=C2NCCOCCNC3=CC=CC=CC3=NCCOCCN=C2C=C1 | – | > 100 | – | > 100 | – | > 100 | – | > 100 | – | – | – | – | – | > 100 | – | > 100 | – | > 100 | – | –
